The values that follow come from ChEMBL document CHEMBL1121563, “8-Hydroxyanthracyclinones from epsilon-rhodomycinone” (1980).

Calls of active or inactive are those of the source. The rule behind the calls is not given here.

One test relates to Bacillus subtilis. Description: Compound was tested for its lambda-phage induction activity against Bacillus subtilis in a disk plate assay at concentration of dose of 0.8 ug/mL; Active. It is filed as functional, organism-based.
Test [1] has as its system Escherichia coli. Description: Compound is evaluated for lambda-phage induction activity in Escherichia coli (dose at 0.8 ug/mL). It counts as functional.
In test [2] the test system is Escherichia coli. The test can be described thus: Compound is evaluated for lambda-phage induction activity in Escherichia coli (dose at 1.6 ug/mL). It counts as functional.
The test system of test [3] is Escherichia coli. The test can be described thus: Compound is evaluated for lambda-phage induction activity in Escherichia coli (dose at 3.1 ug/mL). It is filed as functional.
Test [4] has as its system Escherichia coli. The test can be described thus: Compound is evaluated for lambda-phage induction activity in Escherichia coli (dose at 6.2 ug/mL). It counts as functional.
Test [5] has as its system Escherichia coli. Description: Compound is evaluated for lambda-phage induction activity in Escherichia coli (dose at 12.5 ug/mL). It is filed as functional.
In test [6] the test system is Escherichia coli. The test can be described thus: Compound is evaluated for lambda-phage induction activity in Escherichia coli (dose at 25 ug/mL). It is filed as functional.
For test [7], the system named is Escherichia coli. The test can be described thus: Compound is evaluated for lambda-phage induction activity in Escherichia coli (dose at 50 ug/mL). It counts as functional.
Test [8] has as its system Escherichia coli. Description: Compound is evaluated for lambda-phage induction activity in Escherichia coli (dose at 6.2 ug/mL); Toxic to culture. It counts as functional.
Test [9] deals with Escherichia coli. The test can be described thus: Compound is evaluated for lambda-phage induction activity in Escherichia coli (dose at 50 ug/mL); Toxic to culture. It is filed as functional.

Take `CC(=O)[C@]1(O)Cc2c(O)c3c(c(O)c2[C@@H](O[C@H]2C[C@H](N)[C@H](O)[C@H](C)O2)C1)C(=O)c1c(O)cccc1C3=O` [CARUBICIN]: the result in the test with Bacillus subtilis was Active. In addition, the Activity with Escherichia coli [1] came out at 2.2; in the test with Escherichia coli [2], 3; in the test on Escherichia coli [3] it was 6.2; in the test on Escherichia coli [4] it was 7.

Regarding `CC[C@H]1CCc2c(O)c3c(c(O)c2[C@H]1C(=O)OC)C(=O)c1cccc(O)c1C3=O`, the Activity in the test on Escherichia coli [5] amounted to 1.2; in the test with Escherichia coli [6], 1.8; in the test on Escherichia coli [3] it was 1; in the test with Escherichia coli [7], 2.4; in the test on Escherichia coli [4], 1.3.

As for `COc1cccc2c1C(=O)c1c(O)c3c(c(O)c1C2=O)C[C@@](O)(C(C)=O)C[C@@H]3O[C@H]1C[C@H](N)[C@H](O)[C@H](C)O1` [DAUNORUBICIN], in the test with Bacillus subtilis, the result was Active. In addition, the Activity was found to be 3.1 with Escherichia coli [1], 5.3 in the test on Escherichia coli [2], 11.9 in the test with Escherichia coli [3] and 11.1 in the test on Escherichia coli [8].

On to `CC[C@@]12O[C@@H]1Cc1c(O)c3c(c(O)c1[C@H]2C(=O)OC)C(=O)c1cccc(O)c1C3=O`, for which the Activity in the test with Escherichia coli [5] is 1.1; in the test on Escherichia coli [6], 2; with Escherichia coli [3], 1.2; with Escherichia coli [7] it was 3; with Escherichia coli [4], 1.4.

As for `CCC1=CCc2c(O)c3c(c(O)c2[C@H]1C(=O)OC)C(=O)c1cccc(O)c1C3=O`, the Activity in the test on Escherichia coli [5] is given as 6; in the test on Escherichia coli [6] it was 9.3; in the test on Escherichia coli [7], 13.4; in the test on Escherichia coli [4] it was 2.8.

`CC[C@]12O[C@H]1Cc1c(O)c3c(c(O)c1[C@H]2C(=O)OC)C(=O)c1cccc(O)c1C3=O`: the Activity in the test on Escherichia coli [5] worked out at 1.5; in the test with Escherichia coli [6] it was 1.9; in the test with Escherichia coli [3], 1.2; in the test on Escherichia coli [7], 2.9; in the test on Escherichia coli [4], 1.3.

On to `CC[C@@]1(O)C[C@H](O)c2c(O)c3c(c(O)c2[C@H]1C(=O)OC)C(=O)c1cccc(O)c1C3=O`, for which the values for the Activity with Escherichia coli [5], with Escherichia coli [6] and in the test on Escherichia coli [9] were 1.5, 1.8 and 2.9, respectively.
